In ChEMBL document CHEMBL1146813, “Synthesis and antibacterial activity of novel bifunctional macrolides” (2004):
Values after ≈ are worked out from the molar mass of the structure shown.

Experiments:
Assay type in all cases: functional
Haemophilus influenzae = experiment: In vitro antibacterial activity against Haemophilus influenzae GYR1435 (fully susceptible strain)
Staphylococcus aureus [1] = experiment: In vitro antibacterial activity against Staphylococcus aureus 1775 (methicillin-resistant strain(MRSA))
Staphylococcus aureus [2] = experiment: In vitro antibacterial activity against Staphylococcus aureus NCTC 10649 (erythromycin-susceptible strain)
Streptococcus pneumoniae [3] = experiment: In vitro antibacterial activity against Streptococcus pneumoniae 5649 (efflux-resistant strain bearing a mef (E) gene)
Streptococcus pneumoniae [4] = experiment: In vitro antibacterial activity against Streptococcus pneumoniae 5979 (MLSB resistant stain bearing an erm (B) gene)
Streptococcus pneumoniae [5] = experiment: In vitro antibacterial activity against Streptococcus pneumoniae ATCC 6303 (an erythromycin-susceptible strain)

SMILES | MIC (Haemophilus influenzae) [µg/mL] | MIC (Staphylococcus aureus [1]) [µg/mL] | MIC (Staphylococcus aureus [2]) [µg/mL] | MIC (Streptococcus pneumoniae [3]) [µg/mL] | MIC (Streptococcus pneumoniae [4]) [µg/mL] | MIC (Streptococcus pneumoniae [5]) [µg/mL]
CC[C@H]1OC(=O)[C@H](C)C(=O)[C@H](C)[C@@H](O[C@@H]2O[C@H](C)C[C@H](N(C)C)[C@H]2O)[C@@](C)(OC)C[C@@H](C)/C(=N\OCCNCCCOCCCNCc2cc(Cl)cc(Cl)c2)[C@H](C)[C@@H](O)[C@]1(C)O | 8 (≈ 8.7 µM) | > 128 | 1 (≈ 1.09 µM) | 0.015 (≈ 0.0163 µM) | 4 (≈ 4.35 µM) | ≤ 0.008
CC[C@H]1OC(=O)[C@H](C)C(=O)[C@H](C)[C@@H](O[C@@H]2O[C@H](C)C[C@H](N(C)C)[C@H]2O)[C@@](C)(OC)C[C@@H](C)/C(=N\OCCNCCCOCCCNCc2ccccc2)[C@H](C)[C@@H](O)[C@]1(C)O | 128 (≈ 150 µM) | ≥ 128 | 16 (≈ 18.8 µM) | 0.25 (≈ 0.294 µM) | 1 (≈ 1.17 µM) | 0.12 (≈ 0.141 µM)
CC[C@H]1OC(=O)[C@H](C)[C@@H](OC(=O)NCCCOCCCNC(=O)Cc2ccc(OC)cc2)[C@H](C)[C@@H](O[C@@H]2O[C@H](C)C[C@H](N(C)C)[C@H]2O)[C@@](C)(OC)C[C@@H](C)C(=O)[C@H](C)[C@H]2NC(=O)O[C@@]21C | 16 (≈ 17.4 µM) | > 128 | 8 (≈ 8.68 µM) | 0.5 (≈ 0.543 µM) | > 128 | 0.5 (≈ 0.543 µM)
CC[C@H]1OC(=O)[C@H](C)C(=O)[C@H](C)[C@@H](O[C@@H]2O[C@H](C)C[C@H](N(C)C)[C@H]2O)[C@@](C)(OC)C[C@@H](C)/C(=N\OCCNCCCOCCOCCCNc2ccc(Oc3ccccc3)cc2)[C@H](C)[C@@H](O)[C@]1(C)O | 64 (≈ 65.8 µM) | 128 (≈ 132 µM) | 2 (≈ 2.05 µM) | 1 (≈ 1.03 µM) | 2 (≈ 2.05 µM) | 0.12 (≈ 0.123 µM)
CC[C@H]1OC(=O)[C@H](C)C(=O)[C@H](C)[C@@H](O[C@@H]2O[C@H](C)C[C@H](N(C)C)[C@H]2O)[C@@](C)(OC)C[C@@H](C)/C(=N\OCCNCCCOCCOCCOCCCNc2ccc(Oc3ccccc3)cc2)[C@H](C)[C@@H](O)[C@]1(C)O | 32 (≈ 31.5 µM) | 128 (≈ 126 µM) | 2 (≈ 1.97 µM) | 1 (≈ 0.983 µM) | 2 (≈ 1.97 µM) | 0.25 (≈ 0.246 µM)
CC[C@H]1OC(=O)[C@H](C)C(=O)[C@H](C)[C@@H](O[C@@H]2O[C@H](C)C[C@H](N(C)C)[C@H]2O)[C@@](C)(OC)C[C@@H](C)/C(=N\OCCNCCCCNCc2ccc(Oc3ccccc3)cc2)[C@H](C)[C@@H](O)[C@]1(C)O | 16 (≈ 17.8 µM) | 32 (≈ 35.6 µM) | 16 (≈ 17.8 µM) | 0.25 (≈ 0.278 µM) | 0.5 (≈ 0.556 µM) | 0.015 (≈ 0.0167 µM)
C=CC(C)C(=O)NCCNC(=O)O[C@H]1[C@H](C)[C@@H](O[C@@H]2O[C@H](C)C[C@H](N(C)C)[C@H]2O)[C@@](C)(OC)C[C@@H](C)C(=O)[C@H](C)[C@H]2NC(=O)O[C@]2(C)[C@@H](CC)OC(=O)[C@@H]1C (stereo not given in full) | 128 (≈ 163 µM) | > 128 | 64 (≈ 81.7 µM) |  | > 128 | 0.25 (≈ 0.319 µM)
CC[C@H]1OC(=O)[C@H](C)C(=O)[C@H](C)[C@@H](O[C@@H]2O[C@H](C)C[C@H](N(C)C)[C@H]2O)[C@@](C)(OC)C[C@@H](C)/C(=N\OCCNCCCCCCNCc2ccc(OC)cc2)[C@H](C)[C@@H](O)[C@]1(C)O | 4 (≈ 4.62 µM) | > 128 | 1 (≈ 1.16 µM) | 0.12 (≈ 0.139 µM) | 2 (≈ 2.31 µM) | ≤ 0.008
CC[C@H]1OC(=O)[C@H](C)C(=O)[C@H](C)[C@@H](O[C@@H]2O[C@H](C)C[C@H](N(C)C)[C@H]2O)[C@@](C)(OC)C[C@@H](C)/C(=N\OCCNCCCNCc2ccc(Oc3ccccc3)cc2)[C@H](C)[C@@H](O)[C@]1(C)O | 13 (≈ 14.7 µM) | 64 (≈ 72.3 µM) | 32 (≈ 36.2 µM) | 1 (≈ 1.13 µM) | 32 (≈ 36.2 µM) | 0.12 (≈ 0.136 µM)
CC[C@H]1OC(=O)[C@H](C)C(=O)[C@H](C)[C@@H](O[C@@H]2O[C@H](C)C[C@H](N(C)C)[C@H]2O)[C@@](C)(OC)C[C@@H](C)/C(=N\OCCNCCCCCCNCc2cccc(Oc3ccccc3)c2)[C@H](C)[C@@H](O)[C@]1(C)O | 4 (≈ 4.31 µM) | 64 (≈ 69 µM) | 2 (≈ 2.16 µM) | 0.5 (≈ 0.539 µM) | 0.12 (≈ 0.129 µM) | ≤ 0.008
CC[C@H]1OC(=O)[C@H](C)C(=O)[C@H](C)[C@@H](O[C@@H]2O[C@H](C)C[C@H](N(C)C)[C@H]2O)[C@@](C)(OC)C[C@@H](C)C(=O)[C@H](C)[C@@H](O)[C@]1(C)O | 64 (≈ 109 µM) | > 128 | 0.5 (≈ 0.851 µM) | 0.12 (≈ 0.204 µM) | > 128 | 0.06 (≈ 0.102 µM)
CC[C@H]1OC(=O)[C@H](C)C(=O)[C@H](C)[C@@H](O[C@@H]2O[C@H](C)C[C@H](N(C)C)[C@H]2O)[C@@](C)(OC)C[C@@H](C)/C(=N\OCCNCCCOCCCNCc2ccc(Cl)c(Cl)c2)[C@H](C)[C@@H](O)[C@]1(C)O | 16 (≈ 17.4 µM) | > 128 | 2 (≈ 2.17 µM) | 0.5 (≈ 0.543 µM) | 0.25 (≈ 0.272 µM) | 0.06 (≈ 0.0652 µM)
CC[C@H]1OC(=O)[C@H](C)C(=O)[C@H](C)[C@@H](O[C@@H]2O[C@H](C)C[C@H](N(C)C)[C@H]2O)[C@@](C)(OC)C[C@@H](C)/C(=N\OCCNCCCOCCCNCc2cnc3ccccc3c2)[C@H](C)[C@@H](O)[C@]1(C)O | 64 (≈ 70.9 µM) | > 128 | 0.5 (≈ 0.554 µM) | 0.5 (≈ 0.554 µM) | 0.25 (≈ 0.277 µM) | 0.06 (≈ 0.0665 µM)
CC[C@H]1OC(=O)[C@H](C)C(=O)[C@H](C)[C@@H](O[C@@H]2O[C@H](C)C[C@H](N(C)C)[C@H]2O)[C@@](C)(OC)C[C@@H](C)/C(=N\OCCNCCCOCCCNCc2cn(C)c3ccc(F)cc23)[C@H](C)[C@@H](O)[C@]1(C)O | 8 (≈ 8.68 µM) | 64 (≈ 69.4 µM) | 1 (≈ 1.08 µM) | 0.06 (≈ 0.0651 µM) | 4 (≈ 4.34 µM) | ≤ 0.008
CC[C@H]1OC(=O)[C@H](C)C(=O)[C@H](C)[C@@H](O[C@@H]2O[C@H](C)C[C@H](N(C)C)[C@H]2O)[C@@](C)(OC)C[C@@H](C)/C(=N\OCCNCCCOCCCCOCCCNCc2ccc3ccccc3c2)[C@H](C)[C@@H](O)[C@]1(C)O | 32 (≈ 32.9 µM) | > 128 | 32 (≈ 32.9 µM) | 1 (≈ 1.03 µM) | 1 (≈ 1.03 µM) | 0.12 (≈ 0.123 µM)
CC[C@H]1OC(=O)[C@H](C)C(=O)[C@H](C)[C@@H](O[C@@H]2O[C@H](C)C[C@H](N(C)C)[C@H]2O)[C@@](C)(OC)C[C@@H](C)/C(=N\OCCNCC2CCC(CNCc3ccc(Oc4ccccc4)cc3)CC2)[C@H](C)[C@@H](O)[C@]1(C)O (stereo not given in full) | 8 (≈ 8.39 µM) | 32 (≈ 33.6 µM) | 4 (≈ 4.2 µM) | 0.12 (≈ 0.126 µM) | 0.06 (≈ 0.0629 µM) | 0.06 (≈ 0.0629 µM)
CC[C@H]1OC(=O)[C@H](C)C(=O)[C@H](C)[C@@H](O[C@@H]2O[C@H](C)C[C@H](N(C)C)[C@H]2O)[C@@](C)(OC)C[C@@H](C)/C(=N\OCCNCCCOCCCNCc2ccc(Oc3ccccc3)cc2)[C@H](C)[C@@H](O)[C@]1(C)O | 2 (≈ 2.12 µM) | 64 (≈ 67.9 µM) | 2 (≈ 2.12 µM) | ≤ 0.008 | 0.06 (≈ 0.0636 µM) | ≤ 0.008
CC[C@H]1OC(=O)[C@H](C)C(=O)[C@H](C)[C@@H](O[C@@H]2O[C@H](C)C[C@H](N(C)C)[C@H]2O)[C@@](C)(OC)C[C@@H](C)/C(=N\OCCNCC2CCC(CNCc3cccc(Oc4ccccc4)c3)CC2)[C@H](C)[C@@H](O)[C@]1(C)O (stereo not given in full) | 8 (≈ 8.39 µM) | 64 (≈ 67.1 µM) | 4 (≈ 4.2 µM) | 0.12 (≈ 0.126 µM) | 2 (≈ 2.1 µM) | ≤ 0.008
CC[C@H]1OC(=O)[C@H](C)C(=O)[C@H](C)[C@@H](O[C@@H]2O[C@H](C)C[C@H](N(C)C)[C@H]2O)[C@](C)(OCC=Cc2cnc3ccccc3c2)C[C@@H](C)C(=O)[C@H](C)[C@H]2NC(=O)O[C@@]21C [CETHROMYCIN] | 0.5 (≈ 0.653 µM) | > 128 | 0.12 (≈ 0.157 µM) | ≤ 0.008 | ≤ 0.008 | ≤ 0.008
CC[C@H]1OC(=O)[C@H](C)[C@@H](O[C@H]2C[C@@](C)(OC)[C@@H](O)[C@H](C)O2)[C@H](C)[C@@H](O[C@@H]2O[C@H](C)C[C@H](N(C)C)[C@H]2O)[C@](C)(O)C[C@@H](C)C(=O)[C@H](C)[C@@H](O)[C@]1(C)O [ERYTHROMYCIN] | 2 (≈ 2.73 µM) | > 128 | 0.25 (≈ 0.341 µM) | 4 (≈ 5.45 µM) | > 128 | 0.03 (≈ 0.0409 µM)
CC[C@H]1OC(=O)[C@H](C)C(=O)[C@H](C)[C@@H](O[C@@H]2O[C@H](C)C[C@H](N(C)C)[C@H]2O)[C@](C)(OC)C[C@@H](C)C(=O)[C@H](C)[C@H]2N(CCCCn3cnc(-c4cccnc4)c3)C(=O)O[C@]12C [TELITHROMYCIN] | 2 (≈ 2.46 µM) | > 128 | 0.06 (≈ 0.0739 µM) | 0.25 (≈ 0.308 µM) | 0.06 (≈ 0.0739 µM) | ≤ 0.008
